ChEMBL document CHEMBL1212811, “Chemical phylogenetics of histone deacetylases” (Nat Chem Biol, 2010)

How the values were obtained:
Histone deacetylase 3 = Histone deacetylase 3 (Homo sapiens, UniProt O15379)
Histone deacetylase 1 = Histone deacetylase 1 (Homo sapiens, UniProt Q13547)
Histone deacetylase 8 = target: T1, Histone deacetylase 8 (Homo sapiens, UniProt Q9BY41)
T1 sequence (Q9BY41 whole entry): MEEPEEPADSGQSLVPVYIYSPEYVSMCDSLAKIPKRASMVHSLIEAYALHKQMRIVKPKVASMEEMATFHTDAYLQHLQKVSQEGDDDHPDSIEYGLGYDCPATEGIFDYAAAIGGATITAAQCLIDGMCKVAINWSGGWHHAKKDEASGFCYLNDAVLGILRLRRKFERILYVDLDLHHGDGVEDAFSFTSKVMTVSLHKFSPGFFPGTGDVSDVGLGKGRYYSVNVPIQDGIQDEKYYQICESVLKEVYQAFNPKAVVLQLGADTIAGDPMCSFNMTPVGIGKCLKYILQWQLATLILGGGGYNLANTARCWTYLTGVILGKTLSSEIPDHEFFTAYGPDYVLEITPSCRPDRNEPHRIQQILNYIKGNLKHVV

Histone deacetylase 2 = Histone deacetylase 2 (Homo sapiens, UniProt Q92769)
Histone deacetylase 9 = Histone deacetylase 9 (Homo sapiens, UniProt Q9UKV0)
[1] = target: T2, Protein deacetylase HDAC6 (Homo sapiens, UniProt Q9UBN7)
T2 sequence (Q9UBN7 whole entry): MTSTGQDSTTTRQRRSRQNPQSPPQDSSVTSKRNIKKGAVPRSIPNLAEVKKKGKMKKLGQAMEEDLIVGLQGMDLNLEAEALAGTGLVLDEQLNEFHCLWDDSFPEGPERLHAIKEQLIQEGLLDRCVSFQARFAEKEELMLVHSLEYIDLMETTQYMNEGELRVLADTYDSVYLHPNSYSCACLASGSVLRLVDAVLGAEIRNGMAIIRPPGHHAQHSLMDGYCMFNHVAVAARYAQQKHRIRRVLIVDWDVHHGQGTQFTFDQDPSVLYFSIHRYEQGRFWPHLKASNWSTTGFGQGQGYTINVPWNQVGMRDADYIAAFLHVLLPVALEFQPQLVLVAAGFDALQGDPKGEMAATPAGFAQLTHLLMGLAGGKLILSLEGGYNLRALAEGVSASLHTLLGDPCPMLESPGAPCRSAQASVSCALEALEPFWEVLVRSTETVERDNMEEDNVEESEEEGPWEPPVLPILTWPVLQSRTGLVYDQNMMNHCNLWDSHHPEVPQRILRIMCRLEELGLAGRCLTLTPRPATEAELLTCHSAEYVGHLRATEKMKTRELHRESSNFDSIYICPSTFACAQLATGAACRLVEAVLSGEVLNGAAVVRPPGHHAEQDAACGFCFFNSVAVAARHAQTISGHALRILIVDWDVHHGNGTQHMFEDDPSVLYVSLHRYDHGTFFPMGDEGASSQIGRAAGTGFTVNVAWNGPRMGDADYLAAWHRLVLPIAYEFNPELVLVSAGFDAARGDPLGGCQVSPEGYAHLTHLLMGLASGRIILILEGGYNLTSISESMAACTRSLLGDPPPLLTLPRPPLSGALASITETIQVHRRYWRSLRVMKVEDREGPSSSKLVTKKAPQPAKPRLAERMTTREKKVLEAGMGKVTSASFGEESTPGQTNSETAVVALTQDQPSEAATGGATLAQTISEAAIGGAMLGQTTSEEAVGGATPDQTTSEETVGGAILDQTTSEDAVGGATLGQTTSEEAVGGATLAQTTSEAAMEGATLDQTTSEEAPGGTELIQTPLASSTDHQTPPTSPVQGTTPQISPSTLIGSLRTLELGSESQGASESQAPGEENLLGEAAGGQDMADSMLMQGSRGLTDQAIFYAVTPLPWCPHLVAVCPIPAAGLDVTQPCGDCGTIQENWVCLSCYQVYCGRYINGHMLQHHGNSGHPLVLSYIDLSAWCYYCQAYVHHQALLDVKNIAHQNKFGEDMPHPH

Histone deacetylase 4 = Histone deacetylase 4 (Homo sapiens, UniProt P56524)
Histone deacetylase 7 = target: T3, Histone deacetylase 7 (Homo sapiens, UniProt Q8WUI4)
T3 sequence (Q8WUI4 whole entry): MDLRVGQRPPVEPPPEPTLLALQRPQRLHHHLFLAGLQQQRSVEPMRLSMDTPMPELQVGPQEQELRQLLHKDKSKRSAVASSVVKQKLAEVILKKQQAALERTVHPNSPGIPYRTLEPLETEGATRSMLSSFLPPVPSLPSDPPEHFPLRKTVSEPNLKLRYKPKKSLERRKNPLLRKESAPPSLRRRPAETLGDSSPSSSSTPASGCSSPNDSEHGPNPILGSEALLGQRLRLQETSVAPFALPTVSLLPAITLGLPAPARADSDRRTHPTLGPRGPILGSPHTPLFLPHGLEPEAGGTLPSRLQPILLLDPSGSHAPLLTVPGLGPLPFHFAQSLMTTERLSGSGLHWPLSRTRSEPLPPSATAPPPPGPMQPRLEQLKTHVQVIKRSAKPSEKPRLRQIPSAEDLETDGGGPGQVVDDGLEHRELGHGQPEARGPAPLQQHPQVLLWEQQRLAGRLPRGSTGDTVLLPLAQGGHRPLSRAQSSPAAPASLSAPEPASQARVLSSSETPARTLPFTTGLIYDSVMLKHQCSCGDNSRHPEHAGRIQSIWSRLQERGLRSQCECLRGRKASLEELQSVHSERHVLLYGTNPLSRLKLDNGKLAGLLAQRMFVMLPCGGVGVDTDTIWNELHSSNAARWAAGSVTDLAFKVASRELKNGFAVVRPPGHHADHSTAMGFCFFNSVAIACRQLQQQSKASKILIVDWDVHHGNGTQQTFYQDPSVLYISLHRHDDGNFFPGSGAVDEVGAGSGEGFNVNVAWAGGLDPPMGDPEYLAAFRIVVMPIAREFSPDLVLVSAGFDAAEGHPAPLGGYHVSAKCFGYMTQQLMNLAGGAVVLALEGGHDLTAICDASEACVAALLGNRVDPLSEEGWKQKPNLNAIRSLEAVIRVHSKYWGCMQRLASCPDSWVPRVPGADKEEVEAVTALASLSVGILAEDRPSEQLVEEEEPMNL

Histone deacetylase 5 = Histone deacetylase 5 (Homo sapiens, UniProt Q9UQL6)
Sequence of Histone deacetylase 5 (Q9UQL6 whole entry): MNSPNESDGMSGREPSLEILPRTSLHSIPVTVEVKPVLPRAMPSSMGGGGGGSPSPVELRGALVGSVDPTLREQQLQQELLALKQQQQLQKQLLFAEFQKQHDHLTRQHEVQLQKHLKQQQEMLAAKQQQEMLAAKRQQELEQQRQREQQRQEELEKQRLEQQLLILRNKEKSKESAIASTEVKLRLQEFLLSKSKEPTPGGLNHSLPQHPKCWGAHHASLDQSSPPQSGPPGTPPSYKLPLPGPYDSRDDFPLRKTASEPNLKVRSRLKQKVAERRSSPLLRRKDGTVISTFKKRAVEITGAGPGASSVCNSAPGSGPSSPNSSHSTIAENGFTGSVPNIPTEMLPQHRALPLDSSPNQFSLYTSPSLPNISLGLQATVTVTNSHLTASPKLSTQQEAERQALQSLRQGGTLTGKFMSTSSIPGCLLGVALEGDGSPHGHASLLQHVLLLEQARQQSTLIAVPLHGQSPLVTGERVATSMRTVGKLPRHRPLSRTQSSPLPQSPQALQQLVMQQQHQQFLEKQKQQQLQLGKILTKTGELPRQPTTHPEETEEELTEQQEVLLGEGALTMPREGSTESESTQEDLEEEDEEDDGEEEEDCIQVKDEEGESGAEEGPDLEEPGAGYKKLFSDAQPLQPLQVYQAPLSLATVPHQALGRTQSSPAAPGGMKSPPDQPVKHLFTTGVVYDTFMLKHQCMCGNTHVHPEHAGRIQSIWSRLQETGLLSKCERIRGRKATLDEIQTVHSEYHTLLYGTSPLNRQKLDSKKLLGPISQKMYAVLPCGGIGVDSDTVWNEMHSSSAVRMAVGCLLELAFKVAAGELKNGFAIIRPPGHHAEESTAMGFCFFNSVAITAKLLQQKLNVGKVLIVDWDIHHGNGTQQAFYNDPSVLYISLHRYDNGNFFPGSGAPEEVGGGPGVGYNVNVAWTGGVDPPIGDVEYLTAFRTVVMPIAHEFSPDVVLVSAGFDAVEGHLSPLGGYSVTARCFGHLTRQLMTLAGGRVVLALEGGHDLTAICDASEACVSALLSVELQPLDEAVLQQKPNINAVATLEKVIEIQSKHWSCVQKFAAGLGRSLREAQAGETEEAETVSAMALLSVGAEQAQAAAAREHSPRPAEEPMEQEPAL

Sequence of Histone deacetylase 4 (P56524 whole entry): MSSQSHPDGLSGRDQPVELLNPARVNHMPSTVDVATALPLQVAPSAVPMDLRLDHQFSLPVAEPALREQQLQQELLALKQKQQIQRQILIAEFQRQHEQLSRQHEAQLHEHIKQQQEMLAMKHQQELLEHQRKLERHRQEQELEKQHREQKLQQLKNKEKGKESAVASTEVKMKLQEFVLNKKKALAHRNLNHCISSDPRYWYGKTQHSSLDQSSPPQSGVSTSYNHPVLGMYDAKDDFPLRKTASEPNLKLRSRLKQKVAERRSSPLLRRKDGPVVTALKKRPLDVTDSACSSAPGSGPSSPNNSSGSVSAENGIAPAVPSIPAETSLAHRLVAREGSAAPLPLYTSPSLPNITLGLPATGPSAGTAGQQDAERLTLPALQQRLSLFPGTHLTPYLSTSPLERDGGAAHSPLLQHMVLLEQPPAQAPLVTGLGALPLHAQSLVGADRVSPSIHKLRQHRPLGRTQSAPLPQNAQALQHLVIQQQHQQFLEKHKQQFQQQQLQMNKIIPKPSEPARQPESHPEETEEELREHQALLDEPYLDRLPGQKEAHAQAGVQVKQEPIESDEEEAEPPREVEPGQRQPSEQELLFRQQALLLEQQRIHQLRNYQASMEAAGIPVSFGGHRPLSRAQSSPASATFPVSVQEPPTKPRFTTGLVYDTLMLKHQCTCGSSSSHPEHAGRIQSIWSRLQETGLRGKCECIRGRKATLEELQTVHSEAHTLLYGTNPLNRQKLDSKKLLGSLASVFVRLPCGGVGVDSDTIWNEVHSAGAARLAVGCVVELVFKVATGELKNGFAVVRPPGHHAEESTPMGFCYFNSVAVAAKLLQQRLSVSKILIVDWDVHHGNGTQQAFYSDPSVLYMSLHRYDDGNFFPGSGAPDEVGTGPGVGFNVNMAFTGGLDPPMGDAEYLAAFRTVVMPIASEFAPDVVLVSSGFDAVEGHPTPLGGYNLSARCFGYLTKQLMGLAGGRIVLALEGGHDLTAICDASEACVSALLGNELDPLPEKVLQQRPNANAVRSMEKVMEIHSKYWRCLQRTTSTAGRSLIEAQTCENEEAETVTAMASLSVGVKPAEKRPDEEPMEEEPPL
Sequence of Histone deacetylase 2 (Q92769 whole entry): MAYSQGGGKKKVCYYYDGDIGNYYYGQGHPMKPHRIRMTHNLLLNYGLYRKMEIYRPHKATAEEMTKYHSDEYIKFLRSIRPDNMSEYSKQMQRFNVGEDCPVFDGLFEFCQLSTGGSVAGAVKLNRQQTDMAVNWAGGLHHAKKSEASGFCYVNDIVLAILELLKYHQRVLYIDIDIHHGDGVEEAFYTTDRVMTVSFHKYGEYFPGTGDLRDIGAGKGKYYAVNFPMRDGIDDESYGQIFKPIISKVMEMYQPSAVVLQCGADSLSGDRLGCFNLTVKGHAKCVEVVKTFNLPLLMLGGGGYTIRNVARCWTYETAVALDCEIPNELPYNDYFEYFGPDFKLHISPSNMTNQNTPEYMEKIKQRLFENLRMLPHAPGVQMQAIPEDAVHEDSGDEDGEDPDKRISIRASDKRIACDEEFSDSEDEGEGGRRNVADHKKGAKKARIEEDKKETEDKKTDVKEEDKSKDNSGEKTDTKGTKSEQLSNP
Sequence of Histone deacetylase 1 (Q13547 whole entry): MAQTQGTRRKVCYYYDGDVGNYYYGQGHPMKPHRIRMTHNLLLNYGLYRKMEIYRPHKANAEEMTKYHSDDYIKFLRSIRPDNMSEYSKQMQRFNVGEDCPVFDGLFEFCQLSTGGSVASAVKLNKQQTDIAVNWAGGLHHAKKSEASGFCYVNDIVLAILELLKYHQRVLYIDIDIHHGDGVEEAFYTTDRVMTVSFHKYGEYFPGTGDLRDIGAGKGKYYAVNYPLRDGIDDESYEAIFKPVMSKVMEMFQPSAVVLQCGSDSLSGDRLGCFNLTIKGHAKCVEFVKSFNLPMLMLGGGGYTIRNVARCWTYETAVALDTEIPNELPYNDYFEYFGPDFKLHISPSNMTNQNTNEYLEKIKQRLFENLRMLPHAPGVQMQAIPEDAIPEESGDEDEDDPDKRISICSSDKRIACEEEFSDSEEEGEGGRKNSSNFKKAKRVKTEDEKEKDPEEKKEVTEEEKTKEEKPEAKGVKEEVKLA
Sequence of Histone deacetylase 9 (Q9UKV0 whole entry): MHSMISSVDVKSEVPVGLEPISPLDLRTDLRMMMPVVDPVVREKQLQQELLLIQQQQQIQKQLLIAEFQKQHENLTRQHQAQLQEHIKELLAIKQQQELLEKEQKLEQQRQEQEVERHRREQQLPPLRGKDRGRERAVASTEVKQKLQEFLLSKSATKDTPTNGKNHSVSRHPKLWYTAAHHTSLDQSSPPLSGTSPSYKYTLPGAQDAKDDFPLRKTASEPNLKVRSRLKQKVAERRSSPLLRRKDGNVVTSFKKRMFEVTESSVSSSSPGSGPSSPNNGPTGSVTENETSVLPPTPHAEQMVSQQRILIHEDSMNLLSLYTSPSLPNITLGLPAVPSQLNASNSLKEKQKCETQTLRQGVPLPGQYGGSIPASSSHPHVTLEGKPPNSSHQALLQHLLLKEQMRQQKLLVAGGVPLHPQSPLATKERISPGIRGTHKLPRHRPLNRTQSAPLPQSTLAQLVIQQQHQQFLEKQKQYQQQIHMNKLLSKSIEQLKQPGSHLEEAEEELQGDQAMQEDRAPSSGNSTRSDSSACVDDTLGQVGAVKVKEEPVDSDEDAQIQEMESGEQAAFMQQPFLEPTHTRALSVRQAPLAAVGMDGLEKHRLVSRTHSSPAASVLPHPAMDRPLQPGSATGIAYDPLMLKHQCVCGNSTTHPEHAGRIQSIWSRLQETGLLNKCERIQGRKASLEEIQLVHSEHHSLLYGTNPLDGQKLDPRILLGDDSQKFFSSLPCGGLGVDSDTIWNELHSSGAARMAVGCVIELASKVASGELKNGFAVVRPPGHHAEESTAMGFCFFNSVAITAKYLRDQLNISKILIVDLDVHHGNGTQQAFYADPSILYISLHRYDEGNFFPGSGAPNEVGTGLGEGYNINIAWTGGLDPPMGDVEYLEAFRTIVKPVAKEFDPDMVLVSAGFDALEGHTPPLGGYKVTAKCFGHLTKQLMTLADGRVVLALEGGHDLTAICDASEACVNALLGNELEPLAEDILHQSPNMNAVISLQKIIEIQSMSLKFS
Sequence of Histone deacetylase 3 (O15379 whole entry): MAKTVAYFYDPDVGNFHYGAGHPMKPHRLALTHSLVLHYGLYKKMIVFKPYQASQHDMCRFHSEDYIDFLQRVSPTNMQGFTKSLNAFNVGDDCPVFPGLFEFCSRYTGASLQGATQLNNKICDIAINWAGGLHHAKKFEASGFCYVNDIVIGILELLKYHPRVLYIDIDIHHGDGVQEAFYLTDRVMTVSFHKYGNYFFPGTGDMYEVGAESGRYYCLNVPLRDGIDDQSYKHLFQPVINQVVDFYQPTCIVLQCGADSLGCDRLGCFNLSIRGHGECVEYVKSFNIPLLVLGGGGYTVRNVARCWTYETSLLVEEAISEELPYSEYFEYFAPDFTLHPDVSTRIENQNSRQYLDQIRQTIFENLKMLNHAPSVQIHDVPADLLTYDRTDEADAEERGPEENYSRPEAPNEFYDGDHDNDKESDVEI

Compound	Ki (Histone deacetylase 3)	Ki (Histone deacetylase 1)	Ki (Histone deacetylase 8)	Ki (Histone deacetylase 2)	Ki (Histone deacetylase 9)	Ki [1]	Ki (Histone deacetylase 4)	Ki (Histone deacetylase 7)	Ki (Histone deacetylase 5)
O=C(/C=C/c1ccc(C(=O)N/N=C/c2ccc(O)c(O)c2O)cc1)NO	120 nM	120 nM	50 nM	70 nM	1400 nM	32 nM	950 nM	1100 nM	180 nM
CCN(CC)Cc1ccc2cc(COC(=O)Nc3ccc(C(=O)NO)cc3)ccc2c1 [GIVINOSTAT]					390 nM		1050 nM		600 nM
O=C(CCCc1ccccc1)NO [PHENYLBUTYRYLHYDROXAMIC ACID]			1850 nM	430 nM		150 nM			16000 nM
Cn1c(/C=C/C(=O)NO)ccc1C(=O)Cc1ccccc1	250 nM	55 nM	600 nM	125 nM	10000 nM	30 nM	17500 nM	7000 nM	11500 nM
O=C(/C=C/c1cccc(S(=O)(=O)Nc2ccccc2)c1)NO [BELINOSTAT]						1.6 nM	380 nM		
O=C(CCCCCCC(=O)Nc1cccnc1)NO [PYROXAMIDE]	8 nM		1000 nM	36000 nM		4.8 nM			4750 nM
O=C(CCCCCCC(=O)NO)NO [SUBEROHYDROXAMIC ACID]	125 nM					14.5 nM			9500 nM
C=C[C@@H](O)[C@@H]1O[C@H]1/C=C/[C@@H]1O[C@H]1[C@@H](C)O [DEPUDECIN]	14500 nM	5500 nM		12500 nM					
C/C=C1\NC(=O)[C@H]2CSSCC/C=C/[C@H](CC(=O)N[C@H](C(C)C)C(=O)N2)OC(=O)[C@H](C(C)C)NC1=O [ROMIDEPSIN]		0.0015 nM							
O=C(O)CCCCCCC(=O)Nc1ccc([C@H]2O[C@@H](CSc3nc(-c4ccccc4)c(-c4ccccc4)o3)C[C@@H](c3ccc(CO)cc3)O2)cc1 [NILTUBACIN]			750 nM			2200 nM			
